Measured values from patent US9388175B2, “2-aniline-4-aryl substituted thiazole derivatives” (Janssen Pharmaceutica N.V., priority 2005, dated 2016).

Target: T1, hα7-wt nAChR stably expressed in the GH4C1 cell line (Homo sapiens, UniProt P36544)
T1 construct: expressed in transfected cells
Assay: Ca2+ flux imaging (FLIPR) of PAM activity with choline as agonist
Type: cell-based
Conditions: efficacy relative to 100 μM choline alone (defined as 1); peak fluorescence, fluo-4AM; compounds tested 0.1 μM to 30 μM, efficacy criterion at 10 μM
Description: Stable expression in mammalian cells in general and rat GH4C1 cells in particular, of cDNA clones encoding the human α7 wild-type sequence (hα7-wt nAChR) and in which the coding region is placed downstream of a promoter results in the appearance of functional α7 nAChRs on the surface of the mammalian cells. This technique has provided a powerful means of assessing the function of α7 wild-type protein. Given the fact that the cation permeability of the α7 nicotinic receptor preferentially favours calcium, fluorescent imaging of Ca^2+ flux through the hα7-wt nAChR stably expressed in the GH4C1 cell line was used as a first means of assaying modulator activity of the compounds of the present invention.
a) Assay Buffer • Hanks buffered saline solution (HBSS, Invitrogen, Belgium), supplemented with 10 mM HEPES (Invitrogen, Belgium), CaCl2 to a final concentration of 5 mM, 0.1% Bovine serum albumin (Sigma-Aldrich NV, Belgium), 2.5 mM probenecid (Sigma-Aldrich NV, Belgium).
b) Calcium-Sensitive Dye—Fluo-4AM • Fluo-4AM (Molecular Probes, USA) was dissolved in DMSO containing 10% Pluronic acid (Molecular Probes, USA) to give a stock solution which was aliquoted and could be stored at −20° C. until later use. On the day of the experiment Fluo-4AM stock was defrosted and diluted in DMEM/F12 (Invitrogen, Belgium) containing 2.5 mM probenicid and 0.1% BSA to give a final concentration of 2 μM.
c) 96-well Plates • BD Biocoat poly-D-lysine 96-well black/clear bottom plates (BD Biosciences, Belgium)
d) Calcium Flux Measurement • A Fluorimetric Imaging Plate Reader (FLIPR, Molecular Devices Corporation, Sunnyvale, USA) was used to measure intracellular free-calcium flux signals
Monolayers of hα7-wt nAChR-expressing cells were grown in multi-well plates, in particular black-sided, transparent bottomed 96 well plates coated with poly-D-lysine for 24 hours prior to loading with a fluorescent calcium indicator, in a particular embodiment loading with fluo-3 or fluo-4AM for up to 90 minutes, in an even more particular embodiment loading with fluo-4AM for up to 90 minutes, and in a preferred embodiment loading with fluo-4AM for 60 minutes.
In a particular embodiment, the α7 nicotinic receptor agonist was choline, a more particular embodiment choline applied at a sub-maximal concentration of 100 μM.
A control response to choline was calculated on each plate from the difference in peak fluorescence in wells receiving either choline or assay buffer alone. Compounds of the present invention were tested at a concentration range from 0.1 μM to 30 μM.
The activity ranges are defined as follows; A denotes an activity range from 1.1 till 1.5, B denotes an activity range from 1.5 till 2.0, C denotes an activity range from 2.0 till 3.0, D denotes an activity range from 3.0 till 4.5 and E denotes an efficacy from at least 4.5.

T1 sequence (P36544 23-502): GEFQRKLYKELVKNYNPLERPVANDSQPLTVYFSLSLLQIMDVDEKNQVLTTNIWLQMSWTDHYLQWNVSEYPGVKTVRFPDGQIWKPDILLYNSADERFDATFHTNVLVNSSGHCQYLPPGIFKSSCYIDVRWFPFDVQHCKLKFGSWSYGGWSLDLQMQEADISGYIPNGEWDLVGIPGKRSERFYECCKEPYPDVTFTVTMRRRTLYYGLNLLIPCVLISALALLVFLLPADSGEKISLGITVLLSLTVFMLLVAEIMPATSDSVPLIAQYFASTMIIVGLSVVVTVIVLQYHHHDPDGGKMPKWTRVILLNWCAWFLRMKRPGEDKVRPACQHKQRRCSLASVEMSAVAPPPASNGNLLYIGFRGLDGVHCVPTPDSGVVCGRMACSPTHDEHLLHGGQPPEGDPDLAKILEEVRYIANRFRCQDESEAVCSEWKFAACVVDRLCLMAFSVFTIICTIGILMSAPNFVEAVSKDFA

SMILES	Activity Range
COC(=O)c1sc(Nc2ccc(OC)cc2)nc1C(C)C [Compound 151]	E (E denotes an efficacy from at least 4.5)
CCCc1nc(Nc2cc(Cl)ccc2Cl)sc1C(=O)OCC [Compound 156]	E (E denotes an efficacy from at least 4.5)
OCc1sc(Nc2cccc(C(F)(F)F)c2)nc1C(F)(F)F [Compound 119]	E (E denotes an efficacy from at least 4.5)
Cc1ccccc1Nc1nc(-c2ccccc2)c(C(=O)Nc2cccnc2)s1 [Compound 172, 5-Thiazolecarboxamide, 2-[(2-methylphenyl)amino]-4-phenyl-N-3-pyridinyl-]	E (E denotes an efficacy from at least 4.5)
CNC(=O)Cc1sc(Nc2cc(Cl)c(OC)cc2OC)nc1-c1ccc(F)c(F)c1 [Compound 134]	E (E denotes an efficacy from at least 4.5)
Cc1cccc(Nc2nc(-c3cnc4ccccn34)c(F)s2)c1 [Compound 82]	B (B denotes an activity range from 1.5 till 2.0)
FC(F)(F)c1cncc(Nc2nc(-c3cnc4ccccn34)cs2)c1 [Compound 47]	C (C denotes an activity range from 2.0 till 3.0)
Clc1ccc(Nc2nc(-c3cnc4ccccn34)cs2)cc1 [Compound 53]	D (D denotes an activity range from 3.0 till 4.5)
Fc1cccc(-c2nc(Nc3cccc(C(F)(F)F)c3)sc2Br)c1 [Compound 6]	C (C denotes an activity range from 2.0 till 3.0)
Fc1sc(Nc2cccc(C(F)(F)F)c2)nc1-c1cnc2ccccn12 [Compound 80]	C (C denotes an activity range from 2.0 till 3.0)
Fc1cccc(-c2csc(Nc3ccc(F)c(C(F)(F)F)c3)n2)c1 [Compound 79]	B (B denotes an activity range from 1.5 till 2.0)
O=C(Cc1sc(Nc2cc(Cl)ccc2Cl)nc1-c1ccncc1)N1CCCC1 [Compound 162]	E (E denotes an efficacy from at least 4.5)
COc1cc(OC)c(Nc2nc(-c3ccncc3)c(CO)s2)cc1Cl [int. 25]	C (C denotes an activity range from 2.0 till 3.0)
CCOC(=O)c1sc(Nc2cccc(C(F)(F)F)c2)nc1C(F)(F)F [Compound 147]	E (E denotes an efficacy from at least 4.5)
Cc1ccc(Nc2nc(-c3cccnc3)cs2)cc1 [Compound 77]	C (C denotes an activity range from 2.0 till 3.0)
FC(F)(F)c1cc(Nc2nc(-c3cnc4ccccn34)cs2)ccc1Cl [Compound 54]	A (A denotes an activity range from 1.1 till 1.5)
Cc1sc(Nc2cccc(C(F)(F)F)c2)nc1-c1cccnc1 [Compound 101]	D (D denotes an activity range from 3.0 till 4.5)
CNC(=O)c1sc(Nc2cc(Cl)c(OC)cc2OC)nc1-c1ccncc1 [Compound 105]	E (E denotes an efficacy from at least 4.5)
Cc1sc(Nc2ccc(C(F)(F)F)cc2)nc1-c1cccnc1 [Compound 86]	D (D denotes an activity range from 3.0 till 4.5)
COC(=O)CCc1sc(Nc2ccc(OC)cc2)nc1-c1ccc(OC)cc1 [Compound 173, 5-Thiazolepropanoic acid, 4-(4-methoxyphenyl)-2-[(4-methoxyphenyl)amino]-, methyl ester]	D (D denotes an activity range from 3.0 till 4.5)
CCOC(=O)c1sc(Nc2cc(Cl)ccc2Cl)nc1C(F)F [Compound 153]	E (E denotes an efficacy from at least 4.5)
CCOC(=O)c1ccc(Nc2nc(-c3cccnc3)c(C)s2)cc1 [Compound 142]	E (E denotes an efficacy from at least 4.5)
COc1cc(OC)c(Nc2nc(-c3ccc(F)c(F)c3)c(CC(N)=O)s2)cc1Cl [Compound 130]	E (E denotes an efficacy from at least 4.5)
CNC(=O)Cc1sc(Nc2cccc(C(F)(F)F)c2)nc1-c1ccccc1 [Compound 131]	E (E denotes an efficacy from at least 4.5)

SMILES	Activity Range
COc1ccc(Nc2nc(-c3cnc4ccccn34)cs2)cc1 [Compound 70]	D (D denotes an activity range from 3.0 till 4.5)
Cc1ccc(-c2nc(Nc3cccc(C(F)(F)F)c3)sc2CO)cn1 [Compound 129]	E (E denotes an efficacy from at least 4.5)
COCCNC(=O)Cc1sc(Nc2cc(Cl)ccc2Cl)nc1-c1ccncc1 [Compound 106, 2-[(2,5-dichlorophenyl)amino]-N-(2-methoxyethyl)-4-(4-pyridinyl)-5-thiazoleacetamide]	E (E denotes an efficacy from at least 4.5)
COCCc1nc(Nc2cc(Cl)ccc2Cl)sc1C(=O)OC [Compound 157]	E (E denotes an efficacy from at least 4.5)
COc1ccc(OC)c(-c2csc(Nc3cccc(Cl)c3Cl)n2)c1 [Compound 39]	C (C denotes an activity range from 2.0 till 3.0)
COc1cc(OC)c(Nc2nc(-c3ccc4c(c3)OCCO4)c(CO)s2)cc1Cl [int. 19, 2-[(5-chloro-2,4-dimethoxyphenyl)amino]-4-(2,3-dihydro-1,4-benzodioxin-6-yl)-5-thiazolemethanol]	E (E denotes an efficacy from at least 4.5)
CCOC(=O)c1sc(Nc2ccc(OC)cc2)nc1C(F)(F)F [Compound 154]	E (E denotes an efficacy from at least 4.5)
COc1ccc(Nc2nc(-c3ccccc3)c(CO)s2)cc1 [Compound 127]	E (E denotes an efficacy from at least 4.5)
COCCc1nc(Nc2ccc(OC)cc2)sc1C(=O)OC [Compound 158]	E (E denotes an efficacy from at least 4.5)
COC(=O)c1sc(Nc2cc(Cl)ccc2Cl)nc1C(C)C [Compound 149]	E (E denotes an efficacy from at least 4.5)
COc1ccc(-c2csc(Nc3ccc(Cl)cc3Cl)n2)c(OC)c1 [Compound 41]	A (A denotes an activity range from 1.1 till 1.5)
Cc1cccc(Nc2nc(-c3cccnc3)cs2)c1 [Compound 76]	C (C denotes an activity range from 2.0 till 3.0)
Cc1ccc(Nc2nc(-c3cccnc3)c(F)s2)cc1 [Compound 120]	C (C denotes an activity range from 2.0 till 3.0)
Fc1ccc(Nc2nc(-c3cnc4ccccn34)cs2)cc1C(F)(F)F [Compound 9]	C (C denotes an activity range from 2.0 till 3.0)
FC(F)(F)c1cccc(Nc2nc(-c3cnc4ccccn34)cs2)c1 [Compound 71]	B (B denotes an activity range from 1.5 till 2.0)
OCc1sc(Nc2cccc(C(F)(F)F)c2)nc1-c1ccc(Cl)cc1Cl [Compound 31, [4-(2,4-Dichloro-phenyl)-2-(3-trifluoromethyl-phenylamino)-thiazol-5-yl]-methanol]	B (B denotes an activity range from 1.5 till 2.0)
COc1ccc(Nc2nc(-c3cc(Cl)c(OC)cc3OC)c(CO)s2)c(OC)c1 [Compound 126]	E (E denotes an efficacy from at least 4.5)
COCCc1nc(Nc2cccc(C(F)(F)F)c2)sc1C(=O)OC [Compound 159]	E (E denotes an efficacy from at least 4.5)
COCc1sc(Nc2cc(Cl)ccc2Cl)nc1-c1ccccc1 [Compound 98]	E (E denotes an efficacy from at least 4.5)
CCOC(=O)c1sc(Nc2cccc(C(F)(F)F)c2)nc1C [Compound 143]	E (E denotes an efficacy from at least 4.5)
COC(=O)c1sc(Nc2cccc(C(F)(F)F)c2)nc1C(C)C [Compound 148]	E (E denotes an efficacy from at least 4.5)
c1cn2c(-c3csc(Nc4ccc5c(c4)CCO5)n3)cnc2s1 [Compound 60]	B (B denotes an activity range from 1.5 till 2.0)
COc1cc(OC)c(Nc2nc(-c3ccc4c(c3)OCCO4)c(CC(=O)N3CCCC3)s2)cc1Cl [Compound 133]	E (E denotes an efficacy from at least 4.5)
